Test results reported in patent US20260193264A1, “BENZOYPARAZINE PYRAZINES AND THEIR USES” (FOGHORN THERAPEUTICS INC., priority 2022, published 2026).

Assays:
[1] = target: T1, HiBiT-BRM fusion protein in stable HeLa cell line (Homo sapiens, UniProt P51531); test: HiBiT-BRM cell-based degradation assay (Nano-Glo HiBiT Lytic Detection, 24 h); set-up: DC50: scale not given here; conditions: HeLa HiBiT-BRM cells; for DC50: read-out: BRM HiBit Degradation IC50; for BRM HiBit Degradation Maximum (%): top dose 30 μM
T1 construct: expressed in transfected cells
Outline: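 HeLa stably expressing HiBiT-BRM; 24 h compound exposure, 10-pt 3-fold dilution from 30 μM final, duplicates. Lytic LgBiT complementation, luminescence. % degradation vs DMSO (HC) and 2 μM known BRM/BRG1 degrader (LC).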

[2] = target: T2, HiBit-BRG1 fusion protein in stable HeLa cell line expressing HiBit-BRG1 and LgBit (Homo sapiens, UniProt P51532); test: HiBiT-BRG1 cell-based degradation assay (Nano-Glo HiBiT, 24 h); conditions: HeLa HiBit-BRG1/LgBit cells; for DC50: read-out: BRMG1 HiBit Degradation IC50; for Dmax: top dose 30 μM, read-out: BRG1 HiBit Degradation Maximum (%)
T2 construct: expressed in transfected cells
Outline: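 Degradation calculated from NanoBiT luminescence relative to DMSO-treated cells (high) and cells given 2 μM known BRM/BRG1 degrader (low). HeLa cells stably expressing HiBiT-BRG1 plus LgBiT were exposed to compound for 24 h before lytic HiBiT detection.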

T1 sequence (P51531 whole entry, the tested form may be a part): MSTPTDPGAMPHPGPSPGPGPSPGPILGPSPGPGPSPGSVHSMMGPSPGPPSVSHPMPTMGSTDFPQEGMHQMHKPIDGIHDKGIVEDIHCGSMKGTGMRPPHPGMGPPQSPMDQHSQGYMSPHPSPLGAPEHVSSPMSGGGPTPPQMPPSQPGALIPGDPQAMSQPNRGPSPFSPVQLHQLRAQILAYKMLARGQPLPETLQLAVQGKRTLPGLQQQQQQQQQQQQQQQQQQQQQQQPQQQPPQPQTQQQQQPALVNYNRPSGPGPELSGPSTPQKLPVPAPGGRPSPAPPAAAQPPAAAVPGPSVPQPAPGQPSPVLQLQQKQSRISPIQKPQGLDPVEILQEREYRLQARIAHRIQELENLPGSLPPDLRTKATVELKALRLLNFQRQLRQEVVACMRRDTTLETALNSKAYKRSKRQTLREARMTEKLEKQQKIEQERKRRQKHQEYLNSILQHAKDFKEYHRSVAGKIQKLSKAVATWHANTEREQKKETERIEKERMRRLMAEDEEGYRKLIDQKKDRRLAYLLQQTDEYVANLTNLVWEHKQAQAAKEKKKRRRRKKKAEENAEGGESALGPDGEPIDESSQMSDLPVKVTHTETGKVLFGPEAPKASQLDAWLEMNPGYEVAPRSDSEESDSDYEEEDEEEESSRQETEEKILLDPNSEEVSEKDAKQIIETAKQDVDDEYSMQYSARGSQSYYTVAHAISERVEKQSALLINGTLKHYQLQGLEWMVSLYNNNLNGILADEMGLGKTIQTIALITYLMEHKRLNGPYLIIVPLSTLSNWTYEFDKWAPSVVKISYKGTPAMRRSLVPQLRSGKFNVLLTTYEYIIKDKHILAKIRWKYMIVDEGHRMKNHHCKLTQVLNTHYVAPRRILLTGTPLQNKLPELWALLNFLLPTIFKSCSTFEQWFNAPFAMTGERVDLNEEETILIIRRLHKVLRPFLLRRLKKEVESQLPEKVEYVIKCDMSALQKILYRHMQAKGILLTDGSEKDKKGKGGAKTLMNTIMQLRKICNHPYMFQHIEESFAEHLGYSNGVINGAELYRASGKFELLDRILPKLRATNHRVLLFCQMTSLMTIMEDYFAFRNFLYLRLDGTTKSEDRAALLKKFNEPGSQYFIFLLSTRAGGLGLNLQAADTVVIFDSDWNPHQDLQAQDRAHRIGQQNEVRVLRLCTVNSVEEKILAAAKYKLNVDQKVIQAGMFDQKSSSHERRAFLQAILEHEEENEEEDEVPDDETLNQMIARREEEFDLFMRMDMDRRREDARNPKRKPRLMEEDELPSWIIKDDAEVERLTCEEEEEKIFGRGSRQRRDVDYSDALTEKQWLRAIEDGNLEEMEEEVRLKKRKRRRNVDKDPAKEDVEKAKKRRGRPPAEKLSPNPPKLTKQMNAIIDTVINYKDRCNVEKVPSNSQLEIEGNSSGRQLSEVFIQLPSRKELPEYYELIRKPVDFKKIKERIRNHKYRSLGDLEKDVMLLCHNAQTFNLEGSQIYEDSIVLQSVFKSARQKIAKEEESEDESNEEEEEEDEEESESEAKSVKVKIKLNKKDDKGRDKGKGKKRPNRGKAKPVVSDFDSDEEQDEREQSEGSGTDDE
T2 sequence (P51532 whole entry, the tested form may be a part): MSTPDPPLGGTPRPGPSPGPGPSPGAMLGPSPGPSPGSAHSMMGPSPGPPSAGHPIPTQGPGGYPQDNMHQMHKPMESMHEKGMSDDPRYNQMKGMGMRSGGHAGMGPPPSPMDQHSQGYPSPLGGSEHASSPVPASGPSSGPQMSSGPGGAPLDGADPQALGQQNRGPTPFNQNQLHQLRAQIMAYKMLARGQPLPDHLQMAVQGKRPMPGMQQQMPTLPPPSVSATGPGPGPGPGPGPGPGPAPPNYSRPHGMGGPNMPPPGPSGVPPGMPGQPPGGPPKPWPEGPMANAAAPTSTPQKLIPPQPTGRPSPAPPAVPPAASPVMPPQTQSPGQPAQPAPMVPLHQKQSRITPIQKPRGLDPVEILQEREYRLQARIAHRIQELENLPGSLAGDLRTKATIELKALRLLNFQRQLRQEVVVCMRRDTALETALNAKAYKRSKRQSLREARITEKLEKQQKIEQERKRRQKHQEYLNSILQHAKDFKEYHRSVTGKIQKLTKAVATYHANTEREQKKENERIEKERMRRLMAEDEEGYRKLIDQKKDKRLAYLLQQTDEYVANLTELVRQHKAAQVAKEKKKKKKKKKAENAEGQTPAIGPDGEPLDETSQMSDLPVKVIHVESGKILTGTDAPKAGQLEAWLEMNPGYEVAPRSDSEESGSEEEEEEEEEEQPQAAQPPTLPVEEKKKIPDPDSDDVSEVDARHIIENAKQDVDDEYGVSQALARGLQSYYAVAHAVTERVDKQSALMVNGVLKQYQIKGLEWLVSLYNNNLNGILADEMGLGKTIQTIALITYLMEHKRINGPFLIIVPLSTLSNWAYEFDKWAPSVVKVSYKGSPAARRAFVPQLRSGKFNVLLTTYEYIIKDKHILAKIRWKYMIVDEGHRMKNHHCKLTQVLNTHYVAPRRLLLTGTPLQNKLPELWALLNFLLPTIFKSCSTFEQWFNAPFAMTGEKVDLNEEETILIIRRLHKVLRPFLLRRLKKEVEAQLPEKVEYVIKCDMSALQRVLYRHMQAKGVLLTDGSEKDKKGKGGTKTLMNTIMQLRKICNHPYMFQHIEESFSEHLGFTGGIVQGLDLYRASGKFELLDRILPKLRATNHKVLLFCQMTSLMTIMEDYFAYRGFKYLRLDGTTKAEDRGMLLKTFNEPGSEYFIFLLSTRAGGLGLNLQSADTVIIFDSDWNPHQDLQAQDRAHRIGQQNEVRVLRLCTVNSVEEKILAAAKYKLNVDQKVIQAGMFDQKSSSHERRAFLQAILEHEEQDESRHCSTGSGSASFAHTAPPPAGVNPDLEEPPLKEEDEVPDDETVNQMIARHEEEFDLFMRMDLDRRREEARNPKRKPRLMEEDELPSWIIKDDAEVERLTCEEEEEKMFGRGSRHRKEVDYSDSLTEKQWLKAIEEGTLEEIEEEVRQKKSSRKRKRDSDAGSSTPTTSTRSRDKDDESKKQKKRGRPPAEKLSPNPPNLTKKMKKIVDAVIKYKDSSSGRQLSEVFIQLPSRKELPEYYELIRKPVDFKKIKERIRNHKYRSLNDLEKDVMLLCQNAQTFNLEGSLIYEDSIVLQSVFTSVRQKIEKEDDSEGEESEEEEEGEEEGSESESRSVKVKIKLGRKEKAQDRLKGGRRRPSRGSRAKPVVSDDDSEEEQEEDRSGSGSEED

Structure (SMILES)	DC50 [1] [nM]	BRM HiBit Degradation Maximum (%) [1]	DC50 [2] [nM]	Dmax [2] [%]
Cc1ncsc1-c1ccc([C@H](C)NC(=O)[C@@H]2C[C@@H](O)CN2C(=O)C(C(C)C)n2cc(N3CCC34CN(c3ccc5cc(-c6ccccc6O)nnc5c3)C4)nn2)cc1 (stereo partly drawn) [Compound 265, (2S,4R)-4-hydroxy-1-(2-(4-(6-(3-(2-hydroxyphenyl)cinnolin-7-yl)-1,6-diazaspiro[3.3]heptan-1-yl)-1H-1,2,3-triazol-1-yl)-3-methylbutanoyl)-N-((S)-1-(4-(4-methylthiazol-5-yl)phenyl)ethyl)pyrrolidine-2-carboxamide]	> 100	A (“A” indicates maximum degradation ≥75%)	> 100	> 75
Cc1nc(N2CCC(c3ccc4nnc(-c5ccccc5O)cc4c3)CC2)ccc1-c1cc([C@H](C(=O)N2C[C@H](O)C[C@H]2C(=O)N[C@@H](C)c2ccc(-c3scnc3C)cc2)C(C)C)on1 [Compound 69, (2S,4R)-4-hydroxy-1-((R)-2-(3-(6-(4-(3-(2-hydroxyphenyl)cinnolin-6-yl)piperidin-1-yl)-2-methylpyridin-3-yl)isoxazol-5-yl)-3-methylbutanoyl)-N-((S)-1-(4-(4-methylthiazol-5-yl)phenyl)ethyl)pyrrolidine-2-carboxamide]	< 10	A (“A” indicates maximum degradation ≥75%)	> 100	> 50
Cc1ncsc1-c1ccc([C@H](C)NC(=O)[C@@H]2C[C@@H](O)CN2C(=O)C(C(C)C)n2cc(N3CCC4(CCN(c5ccc6nnc(-c7ccccc7O)cc6c5)CC4)C3)nn2)cc1 (stereo partly drawn) [Compound 279]	< 10	A (“A” indicates maximum degradation ≥75%)	> 10	> 75
Cc1ncsc1-c1ccc([C@H](C)NC(=O)[C@@H]2C[C@@H](O)CN2C(=O)C(c2cc(-c3cnc(N4CCC5(CC4)CC(c4ccc6cc(-c7ccccc7O)nnc6c4)C5)nc3)no2)C(C)C)cc1 (mixture of isomers) [Compound 65, (2S,4R)-4-hydroxy-1-(2-(3-(2-(2-(3-(2-hydroxyphenyl)cinnolin-7-yl)-7-azaspiro[3.5]nonan-7-yl)pyrimidin-5-yl)isoxazol-5-yl)-3-methylbutanoyl)-N-((S)-1-(4-(4-methylthiazol-5-yl)phenyl)ethyl)pyrrolidine-2-carboxamide]	< 10	A (“A” indicates maximum degradation ≥75%)	> 10	> 75
Cc1ncsc1-c1ccc([C@H](C)NC(=O)[C@@H]2C[C@@H](O)CN2C(=O)[C@@H](c2cc(N3CC[C@@]4(CCN(c5ccc6cc(-c7ccccc7O)nnc6c5)C4)C3)no2)C(C)C)cc1 [Compound 99, (2S,4R)-4-hydroxy-1-((R)-2-(3-((R)-7-(3-(2-hydroxyphenyl)cinnolin-7-yl)-2,7-diazaspiro[4.4]nonan-2-yl)isoxazol-5-yl)-3-methylbutanoyl)-N-((S)-1-(4-(4-methylthiazol-5-yl)phenyl)ethyl)pyrrolidine-2-carboxamide]	< 10	A (“A” indicates maximum degradation ≥75%)	< 10	> 75
Cc1ncsc1-c1ccc([C@H](C)NC(=O)[C@@H]2C[C@@H](O)CN2C(=O)[C@@H](c2cc(N3CCC(CN4CC(c5ccc6nnc(-c7ccccc7O)cc6c5)C4)CC3)no2)C(C)C)cc1 [Compound 2, (2S,4R)-4-hydroxy-1-((R)-2-(3-(4-((3-(3-(2-hydroxyphenyl)cinnolin-6-yl)azetidin-1-yl)methyl)piperidin-1-yl)isoxazol-5-yl)-3-methylbutanoyl)-N-((S)-1-(4-(4-methylthiazol-5-yl)phenyl)ethyl)pyrrolidine-2-carboxamide]	> 10	A (“A” indicates maximum degradation ≥75%)		< 50
Cc1ncsc1-c1ccc([C@H](C)NC(=O)[C@@H]2C[C@@H](O)CN2C(=O)[C@@H](c2cc(N3CC4(C3)CN(c3cc5nnc(-c6ccccc6O)cc5cc3N(C)C)C4)no2)C(C)C)cc1 [Compound 207, (2S,4R)-1-((R)-2-(3-(6-(6-(dimethylamino)-3-(2-hydroxyphenyl)cinnolin-7-yl)-2,6-diazaspiro[3.3]heptan-2-yl)isoxazol-5-yl)-3-methylbutanoyl)-4-hydroxy-N-((S)-1-(4-(4-methylthiazol-5-yl)phenyl)ethyl)pyrrolidine-2-carboxamide]	< 10	A (“A” indicates maximum degradation ≥75%)	< 10	> 75
Cc1cc2nnc(-c3ccccc3O)cc2cc1-c1cc([C@H](C(=O)N2C[C@H](O)C[C@H]2C(=O)N[C@@H](C)c2ccc(-c3scnc3C)cc2)C(C)C)on1 [Compound 149, (2S,4R)-4-hydroxy-1-((R)-2-(3-(3-(2-hydroxyphenyl)-7-methylcinnolin-6-yl)isoxazol-5-yl)-3-methylbutanoyl)-N-((S)-1-(4-(4-methylthiazol-5-yl)phenyl)ethyl)pyrrolidine-2-carboxamide]	< 10	A (“A” indicates maximum degradation ≥75%)	> 10	> 50
Cc1ncsc1-c1ccc([C@H](C)NC(=O)[C@@H]2C[C@@H](O)CN2C(=O)[C@H](c2cc(-c3cnc(N4CC5(CC(c6ccc7cc(-c8ccccc8O)nnc7c6)C5)C4)nc3)no2)C(C)C)cc1 [Compound 17]	> 10	A (“A” indicates maximum degradation ≥75%)		< 50
CCOc1cc2cc(-c3ccccc3O)nnc2cc1N1CC2(CN(c3cc([C@H](C(=O)N4C[C@H](O)C[C@H]4C(=O)N[C@@H](C)c4ccc(-c5scnc5C)cc4)C(C)C)on3)C2)C1 [Compound 237, (2S,4R)-1-((R)-2-(3-(6-(6-ethoxy-3-(2-hydroxyphenyl)cinnolin-7-yl)-2,6-diazaspiro[3.3]heptan-2-yl)isoxazol-5-yl)-3-methylbutanoyl)-4-hydroxy-N-((S)-1-(4-(4-methylthiazol-5-yl)phenyl)ethyl)pyrrolidine-2-carboxamide]	< 10	A (“A” indicates maximum degradation ≥75%)	< 10	> 75
Cc1ncsc1-c1ccc([C@H](C)NC(=O)[C@@H]2C[C@@H](O)CN2C(=O)[C@@H](c2cc(N3CCN([C@H]4CCN(c5ccc6nnc(-c7ccccc7O)cc6c5)CC4(F)F)CC3)no2)C(C)C)cc1 [Compound 123, (2S,4R)-1-((R)-2-(3-(4-((S)-3,3-difluoro-1-(3-(2-hydroxyphenyl)cinnolin-6-yl)piperidin-4-yl)piperazin-1-yl)isoxazol-5-yl)-3-methylbutanoyl)-4-hydroxy-N-((S)-1-(4-(4-methylthiazol-5-yl)phenyl)ethyl)pyrrolidine-2-carboxamide]	< 10	A (“A” indicates maximum degradation ≥75%)	< 10	> 75
Cc1ncsc1-c1ccc([C@H](C)NC(=O)[C@@H]2C[C@@H](O)CN2C(=O)C(C(C)C)n2cc(N3CCC34CN(c3ccc5nnc(-c6ccccc6O)cc5c3)C4)nn2)cc1 (stereo partly drawn) [Compound 276]		C (“C” indicates maximum degradation <50%)	> 10	> 75
Cc1ncsc1-c1ccc([C@H](C)NC(=O)[C@@H]2C[C@@H](O)CN2C(=O)[C@@H](c2cc(-c3cnc(N4CC(c5ccc6nnc(-c7ccccc7O)cc6c5Cl)C4)nc3)no2)C(C)C)cc1 [Compound 44]	> 10	A (“A” indicates maximum degradation ≥75%)		< 50
